Reference: US6162826A, “Genipin derivative having anti hepatitis B virus activity” (priority 1996, dated 2000)
Like-named read-outs stand apart in the source and are kept apart here.

Experiments:
[1] = tested on: HBV replication; test: Inhibitory effect on HBV replication in 2.2.15 cell culture; format: cell-based, hepatitis B virus; conditions: for EC50: Hepatitis B virus, 216 h, read-out: ED50 (inhibitory effect on HBV replication); for SI (Selectivity Index, IC50/ED50): cytotoxicity IC50 / HBV ED50, 2.2.15 cell culture
Excerpt: Inhibitory effect on HBV replication was examined by the use of 2.2.15. cell. 2.2.15. cell line (see, Sells et al., Journal of Virology, 62, 2836-2844, 1988) is a hepatoma cell infected by hepatitis B virus and is a representative standard cell which accurately standardizes all the essential viral characteristics induced by a chronic HBV infection. That is, 2.2.15. cell has some merits such that DNA pattern is stable, replicated virus exists in high level, virus-specific RNA replicate and protein are present in an appropriate size and pattern, the penetrated HBV virion is excreted in high titer, etc. Therefore, it has been recognized as a very suitable cell line which can be used when the anti viral activity of any compound on HBV is evaluated (see, Korba and Milman, Antiviral Research, 15, p217-228, 1991).
First, the present inventors cultured 2.2.15. cell and treated the cell with the novel compound according to the present invention. Then, extraction of DNA and RNA, gel electrophoresis, and hybridization analysis of HBV DNA were carried out to identify the inhibitory activity of the compound of the present invention on HBV replication. Herein, untreated cell was used as a control and ddC (dideoxy cytidine) widely known as a therapeutic agent for hepatitis was used as a comparative compound. As a result, it could be seen that the genipin derivative according to the present invention has an excellent inhibitory effect on replication like the known ddC.
Test for identifying the anti HBV effect of the compound of the present invention was carried out according to a known assay method (see, Korba and Milman, Antiviral Res., 15, 217, 1991). The assay procedure is briefly described in the following.
2.2.15. cell was cultured and preserved in RPM 11640 culture medium containing 5% fetal bovine serum(FBS), 2 mM glutamine and 50 μg/ml gentamicin sulfate. Resistance to G418 of the cell culture and degree of Mycoplasma contamination were examined according to conventional methods.
Cells (1×10^4 /cm^2) were inoculated into a multi-well tissue culture plate, confluently cultured for 7 days, and then kept for 2 or 3 days in confluent condition to stabilize the HBV DNA level. Then, culture medium was replaced 24 hours before cells were exposed to test compound. During the treatment of 9 days, culture medium was replaced and then test compound was added to the fresh culture medium at intervals of 24 hours. Culture medium was collected immediately before the first introduction of test compound, and after 3, 6, 9 days, respectively, and stored at -70° C. before HBV DNA analysis. Then, cytolysis was carried out to analyze the intracellular HBV DNA.
To analyze the extracellular HBV DNA, 0.2 ml of culture medium was incubated in 1M NaOH/10×SSC (1×SSC=0.15M NaCl/0.015M sodium citrate, pH 7.2) for 20 minutes at 25° C. and then immediately applied to a nitrocellulose membrane presoaked in 20×SSC using a slot blot apparatus. The sample was washed twice with 0.5 ml of 1M Tris/2M NaCl (pH 7.2) and once with 0.5 ml of 20×SSC to neutralize, and then it was washed again with 2×SSC and heated at 80° C. for one hour under vacuum. Generally, the cells which have been cultured and preserved in a dish having a diameter of 10 cm are dissolved in 6 ml of lysis buffer, and the […] is prepared according to the method of Korba et al., 1991.
10 μg/lane of cellular DNA sample was digested with restriction enzyme Hind III. Then, the digested sample was applied to 1% agarose gel electrophoresis and transferred to a nitrocellulose membrane.
3.2 kb HBV DNA fragment obtained by EcoR 1-digestion and purification was labeled with [^32 P]dCTP using nick translation method. This labeled fragment was used as a hybridization probe. Conditions for hybridization and post-washing were controlled by referring to the method of Korba et al., 1991 and HBV nucleic acid content among test sample was determined by Ambis beta scanner. […]

[2] = Cytotoxicity test (neutral red dye uptake); format: cell-based; conditions: human, 2.2.15 cells, A510, 2.2.15 cell, cells treated as in Biological Example 1, read-out: IC50 (cytotoxicity)
Method: Further, the present inventors have performed cytotoxicity test using the neutral red dye uptake method to determine that the anti viral effect of the compound of formula (I) […] its general influence on cell growth. As a result, it was identified that the toxicity of the compound of formula (I) is much less than that of ddC.
Cytotoxicity test was carried out in order to determine whether the anti viral effect of the compound according to the present invention is due to the general influence on cell growth or not. In the present experiment, neutral red dye uptake method was used. This is a standard method widely utilized for examining cell survival, by which the variety of relations between viruses such as HSV or HIV and host organism can be understood.
Cytotoxicity test was performed on a 96-well tissue culture plate. Cells were cultured and treated with test compounds in the same manner as Biological Example 1, and the experiments at 4-kind concentrations were repeated threetimes, respectively. Since the relative toxicity can be determined from the uptake level of neutral red dye, quantitative analysis was carried out using the absorbance of internalized dye at 510 nm (A510).
Inhibitory effect of the compound of formula (I) on HBV replication in 2.2.15 cell culture, cytotoxicity, and SI (Selectivity Index, IC50 /ED50)

[3] = tested on: HBV replication; conditions: therapeutic agent for hepatitis B; cited from earlier work
[4] = cited from earlier work
[5] = 2.2.15 cell culture, treatment of 9 days

Compound	EC50 [1] [µM]	SI (Selectivity Index, IC50/ED50) [1]	CC50 [2] [µM]	EC50 [1, 5] [µM]	inhibition of HBV replication (in words) [3]	in vivo activities (in words) [4]
Nc1ccn([C@H]2CC[C@@H](CO)O2)c(=O)n1 [ddC, dideoxy cytidine, reference compound]	15	> 2.0	> 30	–	–	–
COc1ccc(COCC2=CO[C@@H](OC)[C@@H]3C(C=NO)=CC[C@H]23)cc1 [Compound 2, (1R,4aS,7aS)-7-hydroxyiminomethyl-1-methoxy-4-(p-methoxybenzyloxymethyl)-1,4a,5,7a-tetrahydrocyclopenta[c]pyran]	–	3.0	90	30	–	–
COC(=O)C1=CO[C@@H](OCc2ccccc2)[C@@H]2C(C=O)=CC[C@H]12 [Compound 13, Methyl (1R,4aS,7aS)-1-benzyloxy-7-formyl-1,4a,5,7a-tetrahydrocyclopenta[c]pyran-4-carboxylate]	–	2.5	50	20	–	–
CO[C@@H]1OC=C(C=O)[C@H]2CC=C(C=O)[C@@H]12 [Compound 1, (1R,4aS,7aS)-4,7-diformyl-1-metboxy-1,4a,5,7a-tetrahydrocyclopenta-[c]pyran]	–	–	120	> 500	–	–
COC(=O)C1=CO[C@@H](OCc2ccccc2)[C@@H]2C(C=NO)=CC[C@H]12 [Compound 14, Methyl (1R,4aS,7aS)-1-benzyloxy-7-hydroxyiminomethyl-1,4a,5,7a-tetrahydrocyclopenta[c]pyran-4-carboxylate]	–	8.7	130	15	–	–
COC(=O)C1=CO[C@@H](O)[C@@H]2C(CO)=CC[C@H]12 [genipin]	–	–	–	–	inhibit the HBV replication	liver-protection, inhibition of biosynthesis of RNA and protein, detoxification as well as antiviral activity
OCC1=C[C@@H](O)[C@@H]2C=CO[C@@H](O[C@@H]3O[C@H](CO)[C@@H](O)[C@H](O)[C@H]3O)[C@H]12 [aucubin]	–	–	–	–	inhibit the HBV replication	liver-protection, inhibition of biosynthesis of RNA and protein, detoxification as well as antiviral activity
COC(=O)C1=CO[C@@H](OC(=O)c2ccncc2)[C@@H]2C(COC(=O)c3ccncc3)=CC[C@H]12 [Compound 11, Methyl (1S,4aS,7aS)-1-isonicotinoyloxy-7-isonicotinoyloxymethyl-1,4a,5,7a-tetrahydrocyclopenta[c]pyran4-carboxylate]	–	> 6.7	> 200	30	–	–
